Read-outs that look alike come from different tables or passages of the source.

This passage reports EC50 results from patent US12441730B2, “PRMT5 inhibitors” (Merck Sharp & Dohme LLC, priority 2019, dated 2025).

In assay [1] the target is T1, Full-length (FL)-PRMT5-MEP50 enzyme complex (Homo sapiens, UniProt O14744).
T1 construct: Full-length (FL)-PRMT5-MEP50 enzyme complex (recombinant proteins from baculovirus-transfected Sf21 cells: FL-PRMT5; MW=73837 kDa and FL-MEP50; MW=38614); made in house; host or cells: baculovirus-transfected Sf21 cells
T1 sequence (O14744 whole entry): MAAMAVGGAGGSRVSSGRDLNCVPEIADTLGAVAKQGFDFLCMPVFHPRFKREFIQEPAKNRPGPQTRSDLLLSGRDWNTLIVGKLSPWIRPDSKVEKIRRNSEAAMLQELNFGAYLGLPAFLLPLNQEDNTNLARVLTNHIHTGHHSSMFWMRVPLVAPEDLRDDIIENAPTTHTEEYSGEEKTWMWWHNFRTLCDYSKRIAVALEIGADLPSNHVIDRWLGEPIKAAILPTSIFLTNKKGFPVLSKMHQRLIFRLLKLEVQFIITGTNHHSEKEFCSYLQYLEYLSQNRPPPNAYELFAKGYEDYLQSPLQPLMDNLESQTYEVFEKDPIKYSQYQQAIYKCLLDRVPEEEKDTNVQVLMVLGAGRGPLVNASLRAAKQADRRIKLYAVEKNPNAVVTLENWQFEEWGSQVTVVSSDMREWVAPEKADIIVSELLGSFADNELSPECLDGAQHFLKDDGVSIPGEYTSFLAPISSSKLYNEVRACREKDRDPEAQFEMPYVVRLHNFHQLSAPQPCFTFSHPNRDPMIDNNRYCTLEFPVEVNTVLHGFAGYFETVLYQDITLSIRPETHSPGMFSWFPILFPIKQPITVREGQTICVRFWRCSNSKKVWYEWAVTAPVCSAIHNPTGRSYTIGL
T1 sequence (Q9BQA1 whole entry partner): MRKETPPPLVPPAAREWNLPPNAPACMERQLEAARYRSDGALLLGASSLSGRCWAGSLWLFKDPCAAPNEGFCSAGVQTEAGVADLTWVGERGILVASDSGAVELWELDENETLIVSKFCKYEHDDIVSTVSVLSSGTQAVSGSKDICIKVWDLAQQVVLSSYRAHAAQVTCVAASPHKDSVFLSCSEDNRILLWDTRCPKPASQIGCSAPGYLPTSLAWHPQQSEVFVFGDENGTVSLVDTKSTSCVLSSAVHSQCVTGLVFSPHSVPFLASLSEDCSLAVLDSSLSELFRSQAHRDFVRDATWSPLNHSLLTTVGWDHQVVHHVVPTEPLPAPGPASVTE
Description: PRMT5-MEP50 Enzyme Methylation Assay (Version A). The class given is biochemical. Summed up: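 Compound was pre-incubated with enzyme for 60 min, then reacted 150 min at 37° C. at final 1.0 nM PRMT5-MEP50, 15 μM SAM and 75 nM biotinylated H4R3(Me1) peptide, in 50 mM Bicine pH 8.0 with 1% DMSO. SAMDI mass-spectrometric readout of Me1→Me2 conversion. EC50 from 4- or 7-parameter regression.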

In assay [2] the test system is symmetric dimethylation of arginine (SDMA) of PRMT5 substrates in MCF-7 cells. Description: PRMT5 Cell Target Engagement (TE) Assay. The assay is classed as cell-based. The note with it: 3 days treatment, SDMA high content imaging. An outline of the steps: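 MCF-7 cells treated 3 days at 37 °C with a ten-point 1:3 titration from 10000 nM. Fixed cells immunostained with anti-SDMA and Alexa488 secondary; nuclear fluorescence quantified by high-content imaging versus DMSO wells, with IC50 from a 4-parameter fit.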

Where [3] appears, read: second value of 7 parameter biphasic fit, read-out: Enzyme Methylation Assay Version A (EC50 2).
The mark [4] stands for this setting: single EC50 = 4 parameter single site sigmoidal fit, EC50 1 = first value of 7 parameter biphasic fit, read-out: Enzyme Methylation Assay Version A (EC50 or EC50 1).

In the case of `Cc1c(C(=O)N2CC[C@]3(Cc4ccccc4CN3)[C@H](O)C2)nn2cc(Br)cnc12` [Example 62, (6-bromo-3-methylpyrazolo[1,5-a]pyrimidin-2-yl)[(3R,3′R)-3′-hydroxy-1,4-dihydro-1′H,2H-spiro[isoquinoline-3,4′-piperidin]-1′-yl]methanone], the EC50 (commonly the concentration that produces a half-maximal response) came to 556 nM in assay [1] (setting [3]); 0.395 nM in assay [1] (setting [4]); 31 nM in assay [2] (Homo sapiens, MCF7, 72 h).
For the compound `CO[C@H](C)c1cccn2cc(C(=O)N3CC[C@]4(Cc5ccccc5CN4)[C@H](O)C3)nc12` [Example 237, [(3R,3′R)-3′-hydroxy-1,4-dihydro-1′H,2H-spiro[isoquinoline-3,4′-piperidin]-1′-yl]{8-[(1R)-1-methoxyethyl]imidazo[1,2-a]pyridin-2-yl}methanone], the EC50 in assay [1] (setting [3]) was 1840 nM; in assay [1] (setting [4]), 9.13 nM; in assay [2] (Homo sapiens, MCF7, 72 h) it was 258 nM.
Turning to `Cc1nn(C)c2ncc(C(=O)N3CC[C@]4(Cc5ccccc5CN4)[C@H](O)C3)c(Cl)c12` [Example 180, (4-chloro-1,3-dimethyl-1H-pyrazolo[3,4-b]pyridin-5-yl)((3R,3′R)-3′-hydroxy-1,4-dihydro-2H-spiro[isoquinoline-3,4′-piperidin]-1′-yl)methanone], the EC50 in assay [1] (setting [3]) was found to be 52500 nM; in assay [1] (setting [4]), 51.3 nM; in assay [2] (Homo sapiens, MCF7, 72 h) it was 1320 nM.
With `COCCN1CC(C2CC2)Cn2cc(C(=O)N3CC[C@]4(Cc5ccccc5CN4)[C@H](O)C3)nc21` (single isomer, unassigned) [Example 143], the EC50 in assay [1] (setting [4]) stood at 184 nM; in assay [2] (Homo sapiens, MCF7, 72 h), 318 nM.
On to `Cc1cn2cc(C(=O)N3CC[C@]4(Cc5ccccc5CN4)[C@H](O)C3)nc2s1` [Example 223, [(3R,3′R)-3′-hydroxy-1,4-dihydro-1′H,2H-spiro[isoquinoline-3,4′-piperidin]-1′-yl](2-methylimidazo[2,1-b][1,3]thiazol-6-yl)methanone], for which the EC50 in assay [1] (setting [3]) is 631 nM; in assay [1] (setting [4]), 22.1 nM; in assay [2] (Homo sapiens, MCF7, 72 h), 445 nM.
In the case of `COc1nc2nc(C(=O)N3CC[C@]4(Cc5ccccc5CN4)[C@H](O)C3)cn2cc1C1CC1` [Example 251, (6-cyclopropyl-7-methoxyimidazo[1,2-a]pyrimidin-2-yl)[(3R,3′R)-3′-hydroxy-1,4-dihydro-1′H,2H-spiro[isoquinoline-3,4′-piperidin]-1′-yl]methanone], the EC50 in assay [1] (setting [4]) amounted to 547 nM; in assay [2] (Homo sapiens, MCF7, 72 h), 1850 nM.
For the compound `CCOc1nc(Br)cn2cc(C(=O)N3CC[C@]4(Cc5ccccc5CN4)[C@H](O)C3)nc12` [Example 10], the EC50 in assay [1] (setting [3]) turned out to be 180 nM; in assay [1] (setting [4]), 0.815 nM; in assay [2] (Homo sapiens, MCF7, 72 h), 4.21 nM.
As to `Cc1ccc(C(=O)N2CC[C@]3(Cc4ccccc4CN3)[C@H](O)C2)c(C2CC2)n1` [Example 199, (2-cyclopropyl-6-methyl-3-pyridinyl)[(3R,3′R)-3′-hydroxy-1,4-dihydro-1′H,2H-spiro[isoquinoline-3,4′-piperidin]-1′-yl]methanone], the EC50 in assay [1] (setting [3]) came to 7240 nM; in assay [1] (setting [4]), 4.08 nM; in assay [2] (Homo sapiens, MCF7, 72 h) it was 503 nM.
As to `Cc1ccn2cc(C(=O)N3CC[C@]4(Cc5ccccc5CN4)[C@H](O)C3)nc2n1` [Example 111, [(3R,3′R)-3′-hydroxy-1,4-dihydro-1′H,2H-spiro[isoquinoline-3,4′-piperidin]-1′-yl](7-methylimidazo[1,2-a]pyrimidin-2-yl)methanone], the EC50 was determined as 35900 nM in assay [1] (setting [3]); 41.2 nM in assay [1] (setting [4]); 2710 nM in assay [2] (Homo sapiens, MCF7, 72 h).
The matching figures for `Cc1cc(-c2onc(C)c2C(=O)N2CC[C@]3(Cc4ccccc4CN3)[C@H](O)C2)no1` [Example 183, (3′,5-dimethyl-[3,5′-biisoxazol]-4′-yl)((3R,3′R)-3′-hydroxy-1,4-dihydro-2H-spiro[isoquinoline-3,4′-piperidin]-1′-yl)methanone]: 7940 nM, 4.87 nM and 297 nM.
As for `O=C1Nc2cc(C(=O)N3CC[C@]4(Cc5ccccc5CN4)[C@H](O)C3)ccc2OC1C1CC1` (single isomer, unassigned) [Example 106, (2R or 2S)-2-cyclopropyl-6-((3R,3′R)-3′-hydroxy-1,4-dihydro-2H-spiro[isoquinoline-3,4′-piperidine]-1′-carbonyl)-2H-benzo[b][1,4]oxazin-3(4H)-one], the figures for the EC50 in assay [1] (setting [3]), in assay [1] (setting [4]) and in assay [2] were 1010 nM, 0.43 nM and 36.8 nM, respectively.
In the case of `O=C(c1cn2cc(Br)c(C3CC3)nc2n1)N1CC[C@]2(Cc3ccccc3CN2)[C@H](O)C1` [Example 135, (6-bromo-7-cyclopropylimidazo[1,2-a]pyrimidin-2-yl)[(3R,3′R)-3′-hydroxy-1,4-dihydro-1′H,2H-spiro[isoquinoline-3,4′-piperidin]-1′-yl]methanone], the EC50 in assay [1] (setting [4]) came out at 10.6 nM; in assay [2] (Homo sapiens, MCF7, 72 h), 6.86 nM.
For the compound `O=C(c1cn2cc(Br)ccc2n1)N1CCC2(Cc3ccccc3CN2)C(O)C1` (stereo not drawn) [Example 16, A diastereomer of (6-bromoimidazo[1,2-a]pyridin-2-yl)(3′-hydroxy-1,4-dihydro-1′H,2H-spiro[isoquinoline-3,4′-piperidin]-1′-yl)methanone], the EC50 in assay [1] (setting [3]) amounted to 1590 nM; in assay [1] (setting [4]), 2.02 nM; in assay [2] (Homo sapiens, MCF7, 72 h) it was 50.9 nM.
On to `CO[C@H](C)c1cc(-c2cnn(C)c2C)cn2cc(C(=O)N3CC[C@]4(Cc5ccccc5CN4)[C@H](O)C3)nc12` [Example 245, {6-(1,5-dimethyl-1H-pyrazol-4-yl)-8-[(1R)-1-methoxyethyl]imidazo[1,2-a]pyridin-2-yl}[(3R,3′R)-3′-hydroxy-1,4-dihydro-1′H,2H-spiro[isoquinoline-3,4′-piperidin]-1′-yl]methanone], for which the EC50 was 1.24 nM in assay [1] (setting [4]) and 2.65 nM in assay [2] (Homo sapiens, MCF7, 72 h).
For `Cc1cn2cc(C(=O)N3CC[C@]4(Cc5ccccc5CN4)[C@H](O)C3)nc2nc1C` [Example 126, (6,7-dimethylimidazo[1,2-a]pyrimidin-2-yl)[(3R,3′R)-3′-hydroxy-1,4-dihydro-1′H,2H-spiro[isoquinoline-3,4′-piperidin]-1′-yl]methanone], the EC50 in assay [1] (setting [3]) worked out at 5010 nM; in assay [1] (setting [4]) it was 7.15 nM; in assay [2] (Homo sapiens, MCF7, 72 h) it was 399 nM.
As for `COC[C@H]1C[C@@H](C(F)(F)F)Cn2cc(C(=O)N3CC[C@]4(Cc5ccccc5CN4)[C@H](O)C3)nc21` (single isomer, unassigned) [Example 155], the 50% effective concentration (EC50) amounted to 3980 nM in assay [1] (setting [3]); 5.26 nM in assay [1] (setting [4]); 122 nM in assay [2] (Homo sapiens, MCF7, 72 h).
Take `CC(C#N)c1cnc2nc(C(=O)N3CC[C@]4(Cc5ccccc5CN4)[C@H](O)C3)cn2c1` (stereo partly drawn) [Example 133, 2-(2-{[(3R,3′R)-3′-hydroxy-1,4-dihydro-1′H,2H-spiro[isoquinoline-3,4′-piperidin]-1′-yl]carbonyl}imidazo[1,2-a]pyrimidin-6-yl)propanenitrile]: the EC50 turned out to be 16.2 nM in assay [1] (setting [3]); 3.79 nM in assay [1] (setting [4]); 77.4 nM in assay [2] (Homo sapiens, MCF7, 72 h).
In the case of `O=C(c1cn2cc(C3CC3(F)F)cnc2n1)N1CC[C@]2(Cc3ccccc3CN2)[C@H](O)C1` (single isomer, unassigned) [Example 77], the EC50 in assay [1] (setting [3]) turned out to be 108 nM; in assay [1] (setting [4]) it was 1.46 nM; in assay [2], 23.8 nM.
As to `N#CC1(c2cnc3nc(C(=O)N4CC[C@]5(Cc6ccccc6CN5)[C@H](O)C4)cn3c2)CC12CC2` (single isomer, unassigned) [Example 82], the results for the EC50 in assay [1] (setting [4]) and in assay [2] were 0.746 nM and 7.75 nM, respectively.
Take `COc1ccc(C)cc1-n1cnc(C(=O)N2CC[C@]3(Cc4ccccc4CN3)[C@H](O)C2)c1` [Example 213, [(3R,3′R)-3′-hydroxy-1,4-dihydro-1′H,2H-spiro[isoquinoline-3,4′-piperidin]-1′-yl][1-(2-methoxy-5-methylphenyl)-1H-imidazol-4-yl]methanone]: the EC50 in assay [1] (setting [3]) stood at 343 nM; in assay [1] (setting [4]) it was 4.33 nM; in assay [2] (Homo sapiens, MCF7, 72 h) it was 209 nM.
Consider `Cc1cn2cc(C(=O)N3CC[C@]4(Cc5ccccc5CN4)[C@H](O)C3)nc2c(O)n1` [Example 66, 2-{[(3R,3′R)-3′-hydroxy-1,4-dihydro-1′H,2H-spiro[isoquinoline-3,4′-piperidin]-1′-y1]carbonyl}-6-methylimidazo[1,2-a]pyrazin-8(7H)-one], for which the EC50 worked out at 9330 nM in assay [1] (setting [3]); 13.7 nM in assay [1] (setting [4]); 4410 nM in assay [2] (Homo sapiens, MCF7, 72 h).
On to `O=C(c1cn2cc(Br)c(C(F)(F)F)nc2n1)N1CC[C@]2(Cc3ccccc3CN2)[C@H](O)C1` [Example 121, [6-bromo-7-(trifluoromethyl)imidazo[1,2-a]pyrimidin-2-yl][(3R,3′R)-3′-hydroxy-1,4-dihydro-1′H,2H-spiro[isoquinoline-3,4′-piperidin]-1′-yl]methanone], for which the 50% effective concentration (EC50) was determined as 3310 nM in assay [1] (setting [3]); 4.88 nM in assay [1] (setting [4]); 65.5 nM in assay [2] (Homo sapiens, MCF7, 72 h).
The matching figures for `COC(C)c1cc(C(F)(F)F)cn2cc(C(=O)N3CC[C@]4(Cc5ccccc5CN4)[C@H](O)C3)nc12` (stereo partly drawn) [Example 67, [(3R,3′R)-3′-hydroxy-1,4-dihydro-1′H,2H-spiro[isoquinoline-3,4′-piperidin]-1′-yl][8-(1-methoxyethyl)-6-(trifluoromethyl)imidazo[1,2-a]pyridin-2-yl]methanone]: 313 nM, 0.354 nM and 7.98 nM.
